Assay results reported in patent publication US8940775B2, “Use of derivatives of pentaphyrine as antimicrobial and disinfectant agents” (Universita' Degli Studi di Udine, priority 2010, dated 2015).
Where “and” joins values, the source holds several entries; their conditions need not be identical. Identical values can stand only once.

How the values were obtained:
Type in all cases: cell-based
S. aureus ATCC 6538 = assay: Photo-oxidation test, antibacterial activity on S. aureus; settings: for Percentage bacterial load die-off: initial 10^8 CFU/ml S. aureus, 100 W lamp, 40 W/m^2
Protocol: (§1) The bacterial strains used in the photo-oxidation tests are S. aureus ATCC 6538 and E. hirae ATCC 10541. The bacterial culture in exponential phase is obtained by inoculation in 10 mL of Nutrient Broth No. 2 and incubation at 37° C. Next the culture is centrifuged for 15 minutes at 3200 rpm and the pellet is resuspended in PBS 0.01 M in order to obtain a bacterial concentration equal to about 10^8 CFU/mL (Abs600≈0.1). This suspension was used for the photo-oxidation tests in the conditions described hereunder.
The photo-oxidative treatment was carried out using various light sources: • Lamp A: 100 W incandescent lamp, able to irradiate the bacterial suspension with a fluence rate equal to 40 W/m^2. The […] component of the luminous radiation is removed by filtering the light through a layer of water equal to 0.5 cm; • Lamp B: blue LED lamp, with maximum emission at 473 nm, connected to a power supply that controls its fluence rate between 24 and 50 W/m^2; • Lamp C: lamp with blue LED, with maximum emission at 473 nm, with a fluence rate equal to 10 W/m^2; • Lamp D: lamp with red LED, with maximum emission at 635 nm, with a fluence rate equal to 10 W/m^2.
(§2) The luminous intensity supplied by the light sources was evaluated by radiometer (DeltaOhm HD 2302.0 equipped with LP 471 RAD sensor).
The photo-oxidation tests were performed on a culture volume equal to 1 mL, using a plate with 48 wells with diameter of 1 cm and capacity of 1.5 mL. The multi-well plate is positioned above a magnetic stirrer and under the light source. A volume of a 330 μM solution of PCCox in DMSO is added to the bacterial suspension in order to obtain various concentrations of the photosensitizer (0.05 μM, 0.5 μM, 5 μM and 20 μM). The solution is stirred by small magnetic anchors throughout the treatment. The intrinsic toxicity, i.e. the toxicity not induced by the light, of the PCCox was evaluated on bacterial cultures of S. aureus and E. hirae incubated for 60 minutes in the dark with various concentrations of PCCox: in FIG. 3 are reported the results obtained on S. aureus; similar results were obtained with E. hirae. The percentage of DMSO present in the culture treated never exceeds 6%. […] In FIG. 4 are reported the results obtained with E. hirae; similar results were obtained with S. aureus.
The duration of the treatment is different for S. aureus (15, 30 and 60 minutes) and E. hirae (60 and 120 minutes).
The influence of a step of incubation of the bacterial culture in the dark in the presence of the molecule was evaluated before the irradiation step. In FIG. 5 are reported the results obtained with S. aureus.
At each time interval, a volume of bacterial suspension of 100 μL is taken and is diluted in PBS 0.01 M using an optimum dilution factor for the bacterial culture. From each dilution, 100 μL of bacterial suspension is taken (1000 μL is taken from the samples of primary effluent), seeded in MSA medium for S. aureus and Mf-Enterococcus Selective Agar for E. hirae on Petri dishes and incubated in the dark at 37° C. for 18-24 hours. The same procedure is carried out for the control samples, used for testing the activity of PCCox in the dark and the vitality of the bacterial suspension, without photosensitizer, exposed to the light or incubated in the dark. These samples are analysed at the end of the treatment. Each test is carried out at least in triplicate, and the survival data in terms of CFU/mL are expressed as the mean and standard deviation. The percentage survival is calculated respect to the concentration of bacteria measured on the control sample exposed to the light, analysed at the end of the test.

[1] = tested on: Gram-positive bacterial population of the genus Enterococcus; assay: Photo-oxidation test on primary effluent of a purification plant; settings: PCCox 20 μM
Protocol: FIG. 12. Photo-oxidation test for evaluating the antibacterial activity of the pentaphyrine PCCox (concentration of solution 20 μM) on a real sample, in this case primary effluent of a purification plant for treating municipal waste. The activity of PCCox was evaluated with respect to the Gram-positive bacterial population of the genus Enterococcus, which is present in the sample treated at a concentration equal to 10^4 CFU/mL. The test was carried out with a source of blue light (473 nm) at a luminous intensity equal to 50 W/m^2. The percentage survival of enterococci following treatment with PCCox, in the experimental conditions, is equal to 31%. […]
(§3) The photo-oxidation tests were performed on a culture volume equal to 1 mL, using a plate with 48 wells with diameter of 1 cm and capacity of 1.5 mL. […] The intrinsic toxicity, i.e. the toxicity not induced by the light, of the PCCox was evaluated on bacterial cultures of S. aureus and E. hirae incubated for 60 minutes in the dark with various concentrations of PCCox: in FIG. 3 are reported the results obtained on S. aureus; similar results were obtained with E. hirae. […]
(§4) At each time interval, a volume of bacterial suspension of 100 μL is taken and is diluted in PBS 0.01 M using an optimum dilution factor for the bacterial culture. […] These samples are analysed at the end of the treatment. […]

S. aureus = assay: Intrinsic toxicity of PCCox in the dark on bacterial cultures; settings: no light activation
Protocol: FIG. 3. Toxicity test of the pentaphyrine PCCox evaluating the vitality of a bacterial culture of S. aureus incubated for 60 minutes in the dark with various concentrations of 20-(4-carboxyphenyl)-2,13-dimethyl-3,12-diethyl-[22] pentaphyrine (PCCox) (0.05 μM, 0.5 μM and 5 μM).
The photo-oxidation tests were performed on a culture volume equal to 1 mL, using a plate with 48 wells with diameter of 1 cm and capacity of 1.5 mL. The multi-well plate is positioned above a magnetic stirrer and under the light source. A volume of a 330 μM solution of PCCox in DMSO is added to the bacterial suspension in order to obtain various concentrations of the photosensitizer (0.05 μM, 0.5 μM, 5 μM and 20 μM). […] The intrinsic toxicity, i.e. the toxicity not induced by the light, of the PCCox was evaluated on bacterial cultures of S. aureus and E. hirae incubated for 60 minutes in the dark with various concentrations of PCCox: in FIG. 3 are reported the results obtained on S. aureus; similar results were obtained with E. hirae. […]
as §4, with “treatment. Each test is carried out at least in triplicate, and the survival data in terms of CFU/mL are expressed as the mean and standard deviation.” for “treatment.”

E. hirae ATCC 10541 = assay: Photo-oxidation test, antibacterial activity on E. hirae; settings: PCCox 20 μM; 120 min of illumination with lamp B at 50 W/m2; preliminary tests
Protocol: as §1, with “hereunder. […]” for “hereunder.”
as §2, §3, §4

Structure (SMILES): CCC1=C(C)c2cc3nc(c(-c4ccc(C(=O)O)cc4)c4ccc(cc5nc(cc6ccc(cc1n2)[nH]6)C(CC)=C5C)[nH]4)C=C3 [PCCox, 20-(4-carboxyphenyl)-2,13-dimethyl-3,12-diethyl-[22] pentaphyrine]
- Percentage bacterial load die-off (S. aureus ATCC 6538; PCCox 0.05 μM, 15 min): 99.77%
- Percentage bacterial load die-off (S. aureus ATCC 6538; PCCox 0.05 μM, 30 min): 99.9% and 99.89%
- bacterial load die-off (S. aureus ATCC 6538; PCCox 0.05 μM, 30 min of treatment, lamp A): 3 log
- Percentage bacterial load die-off (S. aureus ATCC 6538; PCCox 0.05 μM, 60 min): 99.97%
- Percentage bacterial load die-off (S. aureus ATCC 6538; PCCox 0.5 μM, 15 min): 100%
- Percentage bacterial load die-off (S. aureus ATCC 6538; PCCox 0.5 μM, 30 min): 99.99%
- Percentage bacterial load die-off (S. aureus ATCC 6538; PCCox 0.5 μM, 60 min): 100%
- Percentage bacterial load die-off (S. aureus ATCC 6538; PCCox 5 μM, 15 min): 99.9988%
- Percentage bacterial load die-off (S. aureus ATCC 6538; PCCox 5 μM, 30 min): 100%
- Percentage bacterial load die-off (S. aureus ATCC 6538; PCCox 5 μM, 60 min): 100%
- die-off (S. aureus ATCC 6538; PCCox 5 μM, 60 min with lamp A (100 W, 40 W/m^2), initial load 10^11-10^13 CFU/ml): 10 log
- die-off (S. aureus ATCC 6538; PCCox 5 μM, blue LED, maximum emission 473 nm, fluence rate between 24 and 50 W/m^2): 10 log
- bactericidal effect (S. aureus ATCC 6538; PCCox 5 μM, lamp C blue LED at 10 W/m^2, 60 min of illumination, pre-incubation 1 h in the dark): 3 log
- influence of incubation time on bactericidal efficiency (S. aureus ATCC 6538; PCCox 5 μM, with or without pre-incubation in the dark for 1 h, blue light 24 W/m^2): not influenced in any way by the incubation time
- initial bacterial load destroyed (S. aureus ATCC 6538; PCCox 5 μM, within 15 min of exposure to the light, initial load 10^8-10^13 CFU/ml): 99.999%
- bactericidal effect (phototoxic efficacy) (S. aureus ATCC 6538; white light (lamp A, 40 W/m^2), after 15 min of irradiation): 5 log
- percentage survival of enterococci ([1]; primary effluent, 10^4 CFU/mL, blue light 473 nm, 50 W/m^2): 31%
- die-off ([1]; primary wastewater, in terms of E. hirae, blue light 50 W/m^2): up to 70%
- bactericidal activity in the dark (S. aureus): does not have bactericidal activity in the dark
- die-off (E. hirae ATCC 10541): 4 log
